In paper PMC9861830, “Hydroxylated Coumarin-Based Thiosemicarbazones as Dual Antityrosinase and Antioxidant Agents” (International Journal of Molecular Sciences, 2023):

Legend:
[1] = DPPH radical scavenging assay; details: for EC50: ethanol, absorbance at 517 nm, 30 min, mean ± SEM, three experiments
Experimental: The antioxidant activity of T1 and its hydroxylated derivatives T2–6 was evaluated via DPPH assay, which is based on the ability of the stable DPP· radical species to be converted in its diamagnetic form (DPPH) by accepting an H· from the tested compound. […] From the evaluation of the relative decrease in absorbance at different concentrations of each tested compound, the antioxidant activities were evaluated by reporting their EC50 values, as shown in Table 1.
(§1) Radical scavenging activities were measured with DPPH and ABTS radical scavenging assays. […] In brief, for the DPPH antioxidant assay procedure, each test compound was dissolved in DMSO at 1.0 mM concentration and then diluted with absolute ethanol in the 500–2.0 µM concentration range. A solution of the DPPH radical (0.1 mM, absolute ethanol) was freshly prepared, stored in the dark, and used within a few hours. Each test solution (1500 µL) was vigorously mixed to an equal volume of DPPH inside a cuvette, and the molecular absorbance at 517 nm was recorded for 30 min. Each test was evaluated in three independent experiments. Ascorbic acid was used as the reference compound. For the ABTS method, based on the capacity of an antioxidant to scavenge the free ABTS^+ generated in the aqueous phase by reacting with a strong oxidizing, the free radical ABTS was produced by reacting 7 mM ABTS with 2.45 mM potassium persulfate in aqueous solution and kept in darkness at room temperature for 24 h before use. Samples of each compound (10 µL) were added to 990 µL of ABTS, and the reduction of the blue-green radical ABTS by hydrogen-donating antioxidants was evaluated by measuring the absorbance at 734 nm after 1 min incubation. The 6-hydroxy-2,5,7,8-tetramethylchromane-2-carboxylic acid (Trolox) was used as the antioxidant standard.

[2] = ABTS radical scavenging assay; details: absorbance at 734 nm after 1 min; mean ± SEM, three experiments
Experimental: as §1

mushroom tyrosinase = assay: Tyrosinase inhibition assay (L-DOPA, dopachrome at 492 nm; Lineweaver–Burk plots); format: biochemical; details: for IC50: L-DOPA 0.5 mM, pH 6.8, 37 °C, mean ± SD, three experiments; for Ki: secondary plot of slope, read-out: Ki (inhibitor binding with free enzyme); for inhibition mode: Lineweaver–Burk plots, L-DOPA
Experimental: The inhibition of mushroom tyrosinase was evaluated as previously described with slight modifications. A mixture containing 50 mM phosphoric acid buffer solution (pH 6.8), a solution of mushroom tyrosinase (72 U/mL final concentration; Sigma Chemical Co., Milan, Italy), and DMSO with or without the sample were incubated at 37 °C for 10 min. Then, L-DOPA solution (0.5 mM final) was added, and the reaction was monitored following the molecular absorbance at 492 nm that resulted from the formation of the dopachrome product. Measurements were performed using a FLUOstar OPTIMA (BMG Labtech, Offenburg, Germany). […] The inhibition mode was analysed using the Lineweaver–Burk plots.

[3] = Potentiometric and spectrophotometric titrations (protonation constants, speciation); format: physicochemical; details: for Logβ / pK: 25 °C, NaCl 0.1 M; for species present at pH of the enzymatic inhibitory studies: pH 6.8
Experimental: Potentiometric titrations were performed in a thermostated vessel at 25 °C in 0.1 M ionic strength (NaCl) using a Mettler-Toledo Seven Compact pH/Ion-meter and equipped with a Mettler-Toledo InLab Micro Pro combined glass electrode with an integrated temperature probe. The glass electrode was calibrated daily and checked using the GLEE software package. UV–visible (UV–Vis) measurements were carried out with an Agilent Cary 60 spectrophotometer using a 0.1 cm quartz cuvette. Protonation constants of the studied molecules were determined via spectrophotometric and potentiometric titrations. Solutions of ligands were prepared daily by dissolving a suitable amount of the compound in DMSO (concentration ≈ 12 mM) prior to the required dilution in 0.1 M NaCl (final DMSO content 1% V/V, concentration ≈ 1.2∙10^−4 M). Four HCl equivalents for T1, five for T2–4, and six for T5–6 were added before titrating with an NaOH standard solution. Potentiometric and spectrophotometric data were simultaneously analysed using the Hyperquad 2006 software package. Speciation diagrams were obtained using Hyss 2009 program with the spectrophotometric data. The number of linearly independent absorbing species was found by applying the eigenvalue analysis to the absorbance data matrix.

[4] = Cell viability assay (MTT); format: cell-based, Murine; details: mouse, B16F10 melanoma cells, 100 μM, percentage of control
Experimental: (§2) The cellular cytotoxicity of compound T6 was investigated using a 3-(4,5-dimethylthiazol-2-yl)-2,5-diphenil-tetrazolium bromide (MTT) assay. Murine melanoma B16F10 cells were seeded in 96-well plates at a density of 5 × 10^3 cells/well and cultured in Dulbecco’s Modified Eagle Medium (DMEM) with 10% fetal bovine serum at 37 °C in a humidified atmosphere with 5% CO2. The B16F10 cell line was exposed for 48 h to compound T6 at concentrations ranging from 4 to 100 μM. After incubation, culture supernatants were removed and exchanged with a medium containing 0.5 mg/mL MTT. Then, after 3 h of incubation at 37 °C, the cells were lysed with 100 μL of DMSO. The absorbance was determined at 560 nm using a microplate reader (Multiskan FC-Thermo Scientific Inc. Waltham, MA, USA).

B16F10 cells = assay: Cell viability assay (MTT); format: cell-based, Murine; details: 48 h
Experimental: as §2

[5] = L + H^+ ⇌ HL (first protonation)

Compound	EC50 [1]	EC50 [2]	IC50 (mushroom tyrosinase)	melting point	Logβ ([3]; L + 2H^+ ⇌ H2L)	Logβ ([3]; L + 3H^+ ⇌ H3L)	Logβ ([3]; L + 4H^+ ⇌ H4L)	Logβ [3, 5]	pK [3, 5]	pK ([3]; step to H2L)	pK ([3]; step to H3L)	pK ([3]; step to H4L)	other results
C/C(=N\NC(N)=S)c1cc2cc(O)c(O)cc2oc1=O [T5, (1E)-2-(1-(6,7-dihydroxy-2-oxo-2H-chromen-3-yl)ethylidene)hydrazine-1-carbothioamide]	7.1 ± 0.3 µM	9 ± 1 µM	6 ± 2 µM	228 to 230 °C (dec.)	18.46 (9)	24.76 (7)	29.50 (6)	10.7 (1)	10.7	7.8	6.3	4.7	species present at pH of the enzymatic inhibitory studies [3]: monoanionic form, H2L^-
O=C1O[C@H]([C@@H](O)CO)C(O)=C1O [Ascorbic Acid, Ascorbic acid, reference compound]	18.6 ± 0.6 µM	–	–	–	–	–	–	–	–	–	–	–	–
C/C(=N\NC(N)=S)c1cc2cccc(O)c2oc1=O [T4, (1E)-2-(1-(8-hydroxy-2-oxo-2H-chromen-3-yl)ethylidene)hydrazine-1-carbothioamide]	28 ± 2 µM	21.8 ± 0.8 µM	5.7 ± 0.8 µM	208 to 210 °C (dec.)	17.26 (1)	22.94 (5)	26.5 (2)	10.4 (1)	10.4	6.9	5.7	3.6	radical scavenging / antioxidant activity in DPPH assay (in words) ([1]; in comparison with ascorbic acid): modest antioxidant activity
Cc1c(C)c2c(c(C)c1O)CCC(C)(C(=O)O)O2 (stereo not drawn) [Trolox, 6-hydroxy-2,5,7,8-tetramethylchromane-2-carboxylic acid, reference compound]	–	13 ± 1 µM	–	–	–	–	–	–	–	–	–	–	–
C/C(=N\NC(N)=S)c1cc2ccc(O)c(O)c2oc1=O [T6, (1E)-2-(1-(7,8-dihydroxy-2-oxo-2H-chromen-3-yl)ethylidene)hydrazine-1-carbothioamide]	17.9 ± 0.4 µM	8.8 ± 0.4 µM	4.1 ± 0.7 µM	228 to 230 °C (dec.)	19.3 (1)	25.1 (1)	29.5 (1)	10.5 (2)	10.5	8.8	5.8	4.4	Kis (inhibitor binding with enzyme–substrate complex) (mushroom tyrosinase; L-DOPA substrate, secondary plot of 1/Vmax): 10.65 µM; Ki (mushroom tyrosinase; L-DOPA substrate): 5.88 µM; inhibition mode (mushroom tyrosinase): mixed-type inhibitor; species present at pH of the enzymatic inhibitory studies [3]: monoanionic form, H2L^-; viability at 48 h, 100 µM [4]: > 90%; cytotoxic effect (in words) (B16F10 cells; 4 μM): no cytotoxic effect; cytotoxicity (in words) (B16F10 cells; 4–100 μM): not cytotoxic
C/C(=N\NC(N)=S)c1cc2cc(O)ccc2oc1=O [T2, (1E)-2-(1-(6-hydroxy-2-oxo-2H-chromen-3-yl)ethylidene)hydrazine-1-carbothioamide]	> 250 µM	25.7 ± 0.4 µM	14 ± 7 µM	222 to 224 °C (dec.)	17.24 (6)	22.4 (1)	26.7 (1)	10.20 (8)	10.2	–	5.4	4.3	–
C/C(=N\NC(N)=S)c1cc2ccc(O)cc2oc1=O [T3, (1E)-2-(1-(7-hydroxy-2-oxo-2H-chromen-3-yl)ethylidene)hydrazine-1-carbothioamide]	> 250 µM	36 ± 1 µM	5 ± 2 µM	–	17.6 (1)	23.26 (7)	26.7 (1)	10.5 (1)	10.5	7.1	5.7	3.4	–
C/C(=N\NC(N)=S)c1cc2ccccc2oc1=O [T1, (1E)-2-(1-(2-oxo-2H-chromen-3-yl)ethylidene)hydrazine-1-carbothioamide]	> 250 µM	72 ± 6 µM	4 ± 2 µM	–	13.47 (9)	17.45 (8)	–	8.46 (9)	8.5	5.0	4.0	–	Ki (mushroom tyrosinase; L-DOPA substrate): 0.85 µM; inhibition mode (mushroom tyrosinase): competitive inhibition; species present in blood plasma ([3]; pH 7.4): neutral form (as HL)
